Laboratory results as given in paper doi:10.1101/2022.06.02.493408v1 (biorxiv, 2022).

Target: T1, WT BetP (AMP-BetP) (Corynebacterium glutamicum, UniProt P54582)
T1 sequence (P54582 1-595): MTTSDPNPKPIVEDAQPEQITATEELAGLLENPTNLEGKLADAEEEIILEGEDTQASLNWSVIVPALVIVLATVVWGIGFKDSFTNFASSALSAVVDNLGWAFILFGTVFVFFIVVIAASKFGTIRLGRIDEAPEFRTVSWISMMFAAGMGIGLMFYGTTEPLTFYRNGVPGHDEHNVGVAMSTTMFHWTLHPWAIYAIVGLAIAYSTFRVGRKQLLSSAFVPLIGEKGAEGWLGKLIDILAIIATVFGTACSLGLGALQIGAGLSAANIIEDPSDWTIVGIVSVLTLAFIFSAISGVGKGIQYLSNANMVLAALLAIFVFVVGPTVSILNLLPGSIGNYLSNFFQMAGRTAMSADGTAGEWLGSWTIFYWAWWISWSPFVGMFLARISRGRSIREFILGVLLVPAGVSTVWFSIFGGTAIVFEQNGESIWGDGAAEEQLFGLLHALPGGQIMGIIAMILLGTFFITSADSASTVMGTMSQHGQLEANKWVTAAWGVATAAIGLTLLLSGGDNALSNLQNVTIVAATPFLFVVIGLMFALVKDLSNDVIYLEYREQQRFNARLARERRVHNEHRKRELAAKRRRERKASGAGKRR
Assay: biochemical

Kd: 188 ± 34 µM
Compound: C[N+](C)(C)CC(=O)[O-] [betaine]
